Measurements from patent EP4603105A1, “PHARMACEUTICAL COMPOSITION CONTAINING CYCLIC COMPOUND HAVING SELECTIVE KRAS INHIBITORY EFFECT AGAINST HRAS AND NRAS” (CHUGAI SEIYAKU KABUSHIKI KAISHA, priority 2022, dated 2024).
Where a SMILES comes first, the peptide text is derived from it. Bridges are numbered along the chain shown (N, C = ends). [ ]: non-standard residue; d: D form. The star is where a group is joined. hPhe(3,5-F2-4-CF3) = N[C@@H](CCc1cc(F)c(C(F)(F)F)c(F)c1)C(=O)O; hPhe(3-Cl-4-CF3) = N[C@@H](CCc1ccc(C(F)(F)F)c(Cl)c1)C(=O)O; NPrPhe(4-CF3) = CCCN[C@@H](Cc1ccc(C(F)(F)F)cc1)C(=O)O; NMeGly(cPent) = CN[C@H](C(=O)O)C1CCCC1; Pro(4S-Me) = C[C@@H]1CN[C@H](C(=O)O)C1; Hyp = O=C(O)[C@@H]1C[C@@H](O)CN1; NMeD = CN[C@@H](CC(=O)O)C(=O)O; NMeL = CN[C@@H](CC(C)C)C(=O)O; αMeS = C[C@](N)(CO)C(=O)O; Ac6c = NC1(C(=O)O)CCCCC1; Morpholide = C1CN(*)CCO1; NMeA = CN[C@@H](C)C(=O)O; Ac5c = NC1(C(=O)O)CCCC1; Aze = O=C(O)[C@@H]1CCN1; Ac4c = NC1(C(=O)O)CCC1; Sar = CNCC(=O)O; tBu = CC(C)(C)*

Legend:
[1] = molecular target: GDP-bound NRAS wild-type protein (Homo sapiens, UniProt P01111); experiment: Binding to NRAS by surface plasmon resonance (SPR), KD and KD ratio to KRAS
GDP-bound NRAS wild-type protein, sequence (P01111 whole entry): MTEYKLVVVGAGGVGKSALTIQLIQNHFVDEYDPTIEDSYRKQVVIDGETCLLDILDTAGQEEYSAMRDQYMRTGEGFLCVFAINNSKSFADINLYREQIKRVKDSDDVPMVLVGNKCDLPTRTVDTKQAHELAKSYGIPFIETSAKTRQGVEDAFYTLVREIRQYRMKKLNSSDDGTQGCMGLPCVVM
Outline: (§1)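 GDP-loaded biotinylated Avi-tag RAS proteins (E. coli-expressed) captured on a Biotin CAPture chip at ~100–300 RU; single-cycle kinetics at 30°C, 100 µL/min, 75 s injections of rising compound concentrations. HBS pH 7.4 running buffer with 1 mM DTT, 10 mM MgCl2, 10 µM GDP, 4% DMSO. KD from 1:1 binding fit.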

[2] = system: human lung cancer strain NCI-H441; format: cell-based
Outline: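 Readout: […] after the ATP-based reagent. Compound: serial dilutions in dimethyl sulfoxide.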

[3] = molecular target: HRAS wild-type protein (Homo sapiens, UniProt P01112); experiment: Binding to HRAS by surface plasmon resonance (SPR), KD and KD ratio to KRAS
HRAS wild-type protein, sequence (P01112 whole entry): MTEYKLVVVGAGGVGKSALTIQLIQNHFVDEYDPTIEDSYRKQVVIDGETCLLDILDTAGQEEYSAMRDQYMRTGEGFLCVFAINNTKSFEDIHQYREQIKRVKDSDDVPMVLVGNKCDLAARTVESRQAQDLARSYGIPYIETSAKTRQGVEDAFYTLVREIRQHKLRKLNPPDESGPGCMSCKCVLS
Outline: as §1

[4] = ratio of KD for GDP-bound NRAS wild-type protein to KD for KRAS
[5] = ratio of KD for HRAS wild-type protein to KD for KRAS
[6] = ratio of the KD value with respect to GDP-bound NRAS wild-type protein to the KD value with respect to KRAS
[7] = ratio of the KD value with respect to HRAS wild-type protein to the KD value with respect to KRAS

IC50 [2] [nM] | SMILES | NRAS /KRAS [1, 4] | HRAS /KRAS [3, 5] | NRAS /KRAS ([1]; ratio of KD value for GDP-bound NRAS wild-type protein to KD value for KRAS (SPR)) | HRAS /KRAS ([3]; ratio of KD value for HRAS wild-type protein to KD value for KRAS (SPR)) | NRAS /KRAS [1, 6] | HRAS /KRAS [3, 7]
186 | CCCN1C(=O)[C@@H]2CCN2C(=O)CN(C)C(=O)[C@H]([C@@H](C)CC)NC(=O)[C@H](CC(C)C)N(C)C(=O)C[C@@H](C(=O)N2CCOCC2)N(C)C(=O)[C@H](C2CCCC2)N(C)C(=O)[C@](C)(COC(C)(C)C)NC(=O)[C@@H]2CCCN2C(=O)[C@H](CCc2cc(F)c(C(F)(F)F)c(F)c2)NC(=O)CN(C)C(=O)[C@@H]1Cc1ccc(C(F)(F)F)cc1 [PP0800] ([NMeL]I[Sar][Aze][NPrPhe(4-CF3)][Sar][hPhe(3,5-F2-4-CF3)]P[αMeS](tBu)[NMeGly(cPent)][NMeD]-Morpholide; lactam N-11) | C (A compound having a KD ratio of 0.1 or more and less than 3 is denoted as C) | B (a compound having 3 or more and less than 10 is denoted as B) |  |  |  | 
7.8 | CCCN1C(=O)[C@@H]2CCN2C(=O)[C@H](C)N(C)C(=O)[C@H]([C@@H](C)CC)NC(=O)[C@H](CC(C)C)N(C)C(=O)C[C@@H](C(=O)N2CCOCC2)N(C)C(=O)[C@H](C2CCCC2)N(C)C(=O)C2(CCCC2)NC(=O)[C@@H]2CCN2C(=O)[C@H](CCc2ccc(C(F)(F)F)c(Cl)c2)NC(=O)CN(C)C(=O)[C@@H]1Cc1ccc(C(F)(F)F)cc1 [PP0281] ([NMeL]I[NMeA][Aze][NPrPhe(4-CF3)][Sar][hPhe(3-Cl-4-CF3)][Aze][Ac5c][NMeGly(cPent)][NMeD]-Morpholide; lactam N-11) | C (A compound having a KD ratio of 0.1 or more and less than 3 is denoted as C) | C (A compound having a KD ratio of 0.1 or more and less than 3 is denoted as C) |  |  |  | 
24.4 | CCC[C@H]1C(=O)N[C@@H]([C@@H](C)CC)C(=O)N(C)CC(=O)N(C)[C@H]2C/C=C\CCN(C2=O)[C@@H](Cc2ccc(C(F)(F)F)cc2)C(=O)N(C)CC(=O)N[C@@H](CCc2ccc(Cl)c(OC)c2)C(=O)N2C[C@H](OCC)C[C@H]2C(=O)NC2(CC(C)(C)C2)C(=O)N(C)[C@@H](C2CCCC2)C(=O)N(C)[C@H](C(=O)N(C)C)CC(=O)N1C [PP2788] | A (a compound having 10 or more and less than 20 is denoted as A) | A (a compound having 10 or more and less than 20 is denoted as A) |  |  |  | 
70.1 | CCO[C@@H]1C[C@H]2C(=O)NC3(CC(F)(F)C3)C(=O)N(C)[C@@H](C(CC)CC)C(=O)N3CCC[C@@H]3CC(=O)N(C)[C@@H](CC)C(=O)N[C@@H]([C@@H](C)CC)C(=O)N(C)CC(=O)N(C)[C@H]3C/C=C\CCN(C3=O)[C@@H](Cc3ccc(C(F)(F)F)cc3)C(=O)N(C)CC(=O)N[C@@H](CCc3cc(F)c(C(F)(F)F)c(F)c3)C(=O)N2C1 [PP1608] |  |  | A (a compound having 10 or more and less than 20 is denoted as A) | A (a compound having 10 or more and less than 20 is denoted as A) |  | 
67.2 | CCO[C@@H]1C[C@H]2C(=O)NC3(CCC3)C(=O)N(C)[C@@H](C3CCCC3)C(=O)N(C)[C@H](C(=O)N(C)C)CC(=O)N(C)[C@@H](CC(C)C)C(=O)N[C@@H]([C@@H](C)CC)C(=O)N3CC[C@H]3C(=O)N(C)[C@H]3CC(C)=CCN(C3=O)[C@@H](Cc3ccc(C(F)(F)F)cc3)C(=O)N(C)CC(=O)N[C@@H](CCc3cc(F)c(C(F)(F)F)c(F)c3)C(=O)N2C1 [PP1033] | C (A compound having a KD ratio of 0.1 or more and less than 3 is denoted as C) | C (A compound having a KD ratio of 0.1 or more and less than 3 is denoted as C) |  |  |  | 
299 | CC[C@H](C)[C@@H]1NC(=O)[C@H](CC(C)C)N(C)C(=O)C[C@@H](C(=O)N2CCOCC2)N(C)C(=O)[C@H](C2CCCC2)N(C)C(=O)C2(CCC2)NC(=O)[C@@H]2[C@@H](OC)CCN2C(=O)[C@H](CCc2cc(F)c(C(F)(F)F)c(F)c2)NC(=O)CN(C)C(=O)[C@H](Cc2ccc(C(F)(F)F)cc2)N2CCCCC[C@@H](C2=O)N(C)C(=O)CN(C)C1=O [PP1067] | B (a compound having 3 or more and less than 10 is denoted as B) | B (a compound having 3 or more and less than 10 is denoted as B) |  |  |  | 
128 | CCO[C@@H]1C[C@H]2C(=O)NC3(CC(C)(C)C3)C(=O)N(C)[C@@H](C3CCCC3)C(=O)N(C)[C@H](C(=O)N(C)C)CC(=O)N(C)[C@@H]([C@H](C)OC)C(=O)N[C@@H]([C@@H](C)CC)C(=O)N3CCC[C@H]3C(=O)N(C)[C@H]3C/C=C\CCN(C3=O)[C@@H](Cc3ccc(C)cc3)C(=O)N(C)CC(=O)N[C@@H](CCc3ccc(C(F)(F)F)c(Cl)c3)C(=O)N2C1 [PP3201] | A (a compound having 10 or more and less than 20 is denoted as A) | A (a compound having 10 or more and less than 20 is denoted as A) |  |  |  | 
7 | CCCN1C(=O)[C@@H]2CCN2C(=O)[C@H](C)N(C)C(=O)[C@H]([C@@H](C)CC)NC(=O)[C@H](CC(C)C)N(C)C(=O)C[C@@H](C(=O)N(C)C)NC(=O)[C@H](C2CCCC2)N(C)C(=O)C2(CCC2)NC(=O)[C@@H]2C[C@@H](OCC)CN2C(=O)[C@H](CCc2ccc(C(F)(F)F)c(Cl)c2)NC(=O)CN(C)C(=O)[C@@H]1Cc1ccc(C(F)(F)F)cc1 [PP0384] ([NMeL]I[NMeA][Aze][NPrPhe(4-CF3)][Sar][hPhe(3-Cl-4-CF3)][Hyp](Et)[Ac4c][NMeGly(cPent)]D-NMe2; lactam N-11) | C (A compound having a KD ratio of 0.1 or more and less than 3 is denoted as C) | B (a compound having 3 or more and less than 10 is denoted as B) |  |  |  | 
35.9 | CCO[C@@H]1C[C@H]2C(=O)NC3(CC(C)(C)C3)C(=O)N(C)[C@@H](C(CC)CC)C(=O)N(C)[C@H](C(=O)N3CCCC3)CC(=O)N(C)[C@@H](C)C(=O)N[C@@H]([C@@H](C)CC)C(=O)N(C)CC(=O)N(C)[C@H]3C/C=C\CCN(C3=O)[C@@H](Cc3ccc(C(F)(F)F)cc3)C(=O)N(C)CC(=O)N[C@@H](CCc3ccc(Cl)c(Cl)c3)C(=O)N2C1 [PP2178] |  |  |  |  | AA (a compound having 20 or more is denoted as AA) | A (a compound having 10 or more and less than 20 is denoted as A)
9.2 | CCCN1C(=O)CN(C)C(=O)CNC(=O)[C@H]([C@@H](C)CC)NC(=O)[C@H](CC(C)C)N(C)C(=O)C[C@@H](C(=O)N2CCOCC2)N(C)C(=O)[C@H](C2CCCC2)N(C)C(=O)C2(CCCC2)NC(=O)[C@@H]2C[C@H](C)CN2C(=O)[C@H](CCc2ccc(C(F)(F)F)c(Cl)c2)NC(=O)CN(C)C(=O)[C@@H]1Cc1ccc(C(F)(F)F)cc1 [PP0449] ([NMeL]IG[Sar][NPrPhe(4-CF3)][Sar][hPhe(3-Cl-4-CF3)][Pro(4S-Me)][Ac5c][NMeGly(cPent)][NMeD]-Morpholide; lactam N-11) |  |  |  |  | C (A compound having a KD ratio of 0.1 or more and less than 3 is denoted as C) | C (A compound having a KD ratio of 0.1 or more and less than 3 is denoted as C)
13.1 | CCCN1C(=O)CN(C)C(=O)CN(C)C(=O)[C@H]([C@@H](C)CC)NC(=O)[C@H](CC(C)C)N(C)C(=O)C[C@@H](C(=O)N2CCOCC2)N(C)C(=O)[C@H](C2CCCC2)N(C)C(=O)C2(CCCCC2)NC(=O)[C@@H]2CCCN2C(=O)[C@H](CCc2ccc(C(F)(F)F)c(Cl)c2)NC(=O)CN(C)C(=O)[C@@H]1Cc1ccc(C(F)(F)F)cc1 [PP0231] ([NMeL]I[Sar][Sar][NPrPhe(4-CF3)][Sar][hPhe(3-Cl-4-CF3)]P[Ac6c][NMeGly(cPent)][NMeD]-Morpholide; lactam N-11) | B (a compound having 3 or more and less than 10 is denoted as B) | C (A compound having a KD ratio of 0.1 or more and less than 3 is denoted as C) |  |  |  | 
4.6 | CCCN1C(=O)[C@@H]2CCN2C(=O)[C@H](C)N(C)C(=O)[C@H]([C@@H](C)CC)NC(=O)[C@H](CC(C)C)N(C)C(=O)C[C@@H](C(=O)N2CCOCC2)N(C)C(=O)[C@H](C2CCCC2)N(C)C(=O)C2(CCCC2)NC(=O)[C@@H]2CCCN2C(=O)[C@H](CCc2ccc(C(F)(F)F)c(Cl)c2)NC(=O)CN(C)C(=O)[C@@H]1Cc1ccc(C(F)(F)F)cc1 [PP0053] ([NMeL]I[NMeA][Aze][NPrPhe(4-CF3)][Sar][hPhe(3-Cl-4-CF3)]P[Ac5c][NMeGly(cPent)][NMeD]-Morpholide; lactam N-11) | C (A compound having a KD ratio of 0.1 or more and less than 3 is denoted as C) | C (A compound having a KD ratio of 0.1 or more and less than 3 is denoted as C) |  |  |  | 
13.4 | CCC(CC)[C@H]1C(=O)N(C)[C@H](C(=O)N(C)C)CC(=O)N(C)[C@@H](COC)C(=O)N[C@@H]([C@@H](C)CC)C(=O)N(C)CC(=O)N(C)[C@H]2C/C=C\CCN(C2=O)[C@@H](Cc2ccc(C)cc2)C(=O)N(C)CC(=O)N[C@@H](CCc2cc(F)c(C(F)(F)F)c(F)c2)C(=O)N2CC3(CC3)C[C@H]2C(=O)NC2(CC(C)(C)C2)C(=O)N1C [PP2963] | AA (a compound having 20 or more is denoted as AA) | A (a compound having 10 or more and less than 20 is denoted as A) |  |  |  | 
96.7 | CCO[C@@H]1C[C@H]2C(=O)NC3(CCC3)C(=O)N(C)[C@@H](C3CCCC3)C(=O)N(C)[C@H](C(=O)N(C)C)CC(=O)N(C)[C@@H](CC)C(=O)N[C@@H]([C@@H](C)CC)C(=O)N[C@@H](C)C(=O)N(C)[C@H]3C/C=C\CCN(C3=O)[C@@H](Cc3ccc(C(F)(F)F)cc3)C(=O)N(C)CC(=O)N[C@@H](CCc3cc(F)c(C(F)(F)F)c(F)c3)C(=O)N2C1 [PP1065] | A (a compound having 10 or more and less than 20 is denoted as A) | B (a compound having 3 or more and less than 10 is denoted as B) |  |  |  | 
